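96-well plates; 48 h exposure; 5 concentrations. Endpoints by linear interpolation between flanking doses. Not reached: highest tested concentration assigned. GI50 marks 50% less growth.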 The source made the active and inactive calls. No stated cut-off is given here; in the data, active = GI50 up to about 1.1 µM and inactive = higher.
Key:
Experiment in all cases: NCI anticancer screen, dose series, 48 h
UO-31 = test system: UO-31
RPMI-8226 = test system: RPMI-8226
SF-295 = test system: SF-295
SK-MEL-5 = test system: SK-MEL-5
COLO 205 = test system: COLO 205
CAKI-1 = test system: CAKI-1
HL-60 = test system: HL-60
HCT-116 = test system: HCT-116
NCI-H23 = test system: NCI-H23
LOX IMVI = test system: LOX IMVI
SNB-19 = test system: SNB-19
HOP-62 = test system: HOP-62
RXF 393 = test system: RXF 393
KM12 = test system: KM12
OVCAR-4 = test system: OVCAR-4

Row | SMILES | GI50 (UO-31) | GI50 (RPMI-8226) | GI50 (SF-295) | GI50 (SK-MEL-5) | GI50 (COLO 205) | GI50 (CAKI-1) | GI50 (HL-60) | GI50 (HCT-116) | GI50 (NCI-H23) | GI50 (LOX IMVI) | GI50 (SNB-19) | GI50 (HOP-62) | GI50 (RXF 393) | GI50 (KM12) | GI50 (OVCAR-4)
1 | CC(=O)CCCCCCCCCCCC[C@@H]1CC[C@H](C)[C@H](O)N1 | 67.1 µM (inactive) | > 100 µM (inactive) | > 100 µM (inactive) | 46.9 µM (inactive) | > 100 µM (inactive) | > 100 µM (inactive) | 43.4 µM (inactive) | > 100 µM (inactive) | > 100 µM (inactive) | 40.3 µM (inactive) | > 100 µM (inactive) | > 100 µM (inactive) | > 100 µM (inactive) | > 100 µM (inactive) | –
2 | OCc1ccc2[n+](c1)CCC1c3ccccc3NC21 (stereo not drawn) | – | > 300 µM (inactive) | > 300 µM (inactive) | 86.9 µM (inactive) | > 300 µM (inactive) | > 300 µM (inactive) | > 300 µM (inactive) | > 300 µM (inactive) | > 300 µM (inactive) | > 300 µM (inactive) | > 300 µM (inactive) | > 300 µM (inactive) | > 300 µM (inactive) | > 300 µM (inactive) | –
3 | CN1CCc2c1nc(-c1ccc([N+](=O)[O-])cc1)c1c2N(C)CC1 | 33.1 µM (inactive) | 48 µM (inactive) | > 100 µM (inactive) | 97.3 µM (inactive) | 54.6 µM (inactive) | 26.4 µM (inactive) | 60.1 µM (inactive) | 15.9 µM (inactive) | > 100 µM (inactive) | 44.2 µM (inactive) | > 100 µM (inactive) | 86.7 µM (inactive) | 35.2 µM (inactive) | 30.9 µM (inactive) | > 100 µM (inactive)
4 | Cc1c(-c2coc(-c3ccccc3)n2)c(=O)n(-c2ccccc2)n1C | 84.7 µM (inactive) | 36.5 µM (inactive) | > 100 µM (inactive) | 25.2 µM (inactive) | 78.3 µM (inactive) | 0.184 µM (active) | 76.7 µM (inactive) | > 100 µM (inactive) | > 100 µM (inactive) | > 100 µM (inactive) | > 100 µM (inactive) | > 100 µM (inactive) | – | > 100 µM (inactive) | > 100 µM (inactive)
5 | COc1cc(/C=C(\OC(C)=O)c2ccc3c(c2)OCO3)cc(OC)c1OC | 4.15 µM (inactive) | 20.8 µM (inactive) | 23.8 µM (inactive) | 11.8 µM (inactive) | 19.9 µM (inactive) | 22.1 µM (inactive) | 27.4 µM (inactive) | 18.2 µM (inactive) | 16.4 µM (inactive) | 16.1 µM (inactive) | 28.2 µM (inactive) | 20 µM (inactive) | 24.8 µM (inactive) | 19 µM (inactive) | 18.3 µM (inactive)
6 | COc1cccc(NC(=S)Nn2c(C)nc3ccccc3c2=O)c1 | > 100 µM (inactive) | > 100 µM (inactive) | > 100 µM (inactive) | > 100 µM (inactive) | > 100 µM (inactive) | > 100 µM (inactive) | > 100 µM (inactive) | > 100 µM (inactive) | > 100 µM (inactive) | > 100 µM (inactive) | – | > 100 µM (inactive) | > 100 µM (inactive) | > 100 µM (inactive) | > 100 µM (inactive)
7 | Cc1cc2c(=O)n(-c3ccc(F)cc3)c(C)nc2c(C(=O)O)c1C | > 100 µM (inactive) | > 100 µM (inactive) | > 100 µM (inactive) | > 100 µM (inactive) | > 100 µM (inactive) | > 100 µM (inactive) | > 100 µM (inactive) | > 100 µM (inactive) | > 100 µM (inactive) | > 100 µM (inactive) | – | > 100 µM (inactive) | > 100 µM (inactive) | > 100 µM (inactive) | > 100 µM (inactive)
8 | CC(C)c1cccc(C(C)C)c1NC(=O)C(=O)C(C(=O)c1ccccc1-c1ccccc1)C1OC(=O)c2ccccc21 (stereo not drawn) | 18.7 µM (inactive) | 32.6 µM (inactive) | 16.6 µM (inactive) | 15.5 µM (inactive) | 30.9 µM (inactive) | 30.1 µM (inactive) | – | 24.9 µM (inactive) | 1.25 µM (inactive) | 14.2 µM (inactive) | 16.8 µM (inactive) | – | 12.9 µM (inactive) | 16.7 µM (inactive) | 16 µM (inactive)
9 | CCOC1CC2OC(=O)C1C=C2C(=O)OC (stereo not drawn) | 35.7 µM (inactive) | 14.7 µM (inactive) | > 100 µM (inactive) | 36.4 µM (inactive) | 19.1 µM (inactive) | 22.3 µM (inactive) | 19.6 µM (inactive) | – | 17.9 µM (inactive) | 87.5 µM (inactive) | 28 µM (inactive) | > 100 µM (inactive) | – | 54.5 µM (inactive) | 23.1 µM (inactive)
10 | CCN(CC)C(=O)C(C)n1cc(C)c(=O)[nH]c1=O (stereo not drawn) | > 100 µM (inactive) | > 100 µM (inactive) | > 100 µM (inactive) | > 100 µM (inactive) | > 100 µM (inactive) | – | > 100 µM (inactive) | > 100 µM (inactive) | > 100 µM (inactive) | > 100 µM (inactive) | > 100 µM (inactive) | > 100 µM (inactive) | > 100 µM (inactive) | > 100 µM (inactive) | > 100 µM (inactive)
11 | NNC(=O)C(=O)N/N=C(\CCCC(=O)Nc1ccc(Cl)cc1)CC(=O)c1ccc(F)cc1 | > 100 µM (inactive) | 36.1 µM (inactive) | > 100 µM (inactive) | > 100 µM (inactive) | > 100 µM (inactive) | – | > 100 µM (inactive) | > 100 µM (inactive) | > 100 µM (inactive) | 13.9 µM (inactive) | > 100 µM (inactive) | > 100 µM (inactive) | > 100 µM (inactive) | > 100 µM (inactive) | > 100 µM (inactive)
12 | CC1CC(=O)CC[C@@H]1OCc1ccccc1 (stereo partly drawn) | > 100 µM (inactive) | 47 µM (inactive) | > 100 µM (inactive) | > 100 µM (inactive) | > 100 µM (inactive) | > 100 µM (inactive) | > 100 µM (inactive) | 81.3 µM (inactive) | > 100 µM (inactive) | > 100 µM (inactive) | > 100 µM (inactive) | > 100 µM (inactive) | > 100 µM (inactive) | > 100 µM (inactive) | > 100 µM (inactive)
13 | CCc1cccc(C)c1NC(=O)CCc1nnc(S)[nH]1 | > 100 µM (inactive) | > 100 µM (inactive) | > 100 µM (inactive) | > 100 µM (inactive) | – | > 100 µM (inactive) | > 100 µM (inactive) | > 100 µM (inactive) | > 100 µM (inactive) | > 100 µM (inactive) | > 100 µM (inactive) | > 100 µM (inactive) | > 100 µM (inactive) | > 100 µM (inactive) | > 100 µM (inactive)
14 | Cc1nc(-n2nc(-c3ccccc3)cc2-c2ccccc2)sc1C(=O)/C=C/c1ccccc1 | 17.9 µM (inactive) | > 100 µM (inactive) | > 100 µM (inactive) | 23.5 µM (inactive) | > 100 µM (inactive) | 9.79 µM (inactive) | 60.4 µM (inactive) | – | > 100 µM (inactive) | > 100 µM (inactive) | > 100 µM (inactive) | > 100 µM (inactive) | > 100 µM (inactive) | 84.3 µM (inactive) | –
15 | CCOP(=O)(C/C(O)=C1\C(=O)C(CCCCNC(=O)OC(C)(C)C)N(Cc2ccccc2)C1=O)OCC (stereo not drawn) | > 100 µM (inactive) | > 100 µM (inactive) | > 100 µM (inactive) | > 100 µM (inactive) | > 100 µM (inactive) | > 100 µM (inactive) | 63.7 µM (inactive) | > 100 µM (inactive) | > 100 µM (inactive) | > 100 µM (inactive) | – | > 100 µM (inactive) | > 100 µM (inactive) | > 100 µM (inactive) | 94.2 µM (inactive)
16 | CN1CCCNCCN(CCc2ccccn2)CCCN(C)CC1 | > 100 µM (inactive) | > 52.8 µM (inactive) | > 100 µM (inactive) | > 100 µM (inactive) | > 43.5 µM (inactive) | > 100 µM (inactive) | > 48.8 µM (inactive) | > 66.2 µM (inactive) | > 100 µM (inactive) | > 50.1 µM (inactive) | > 100 µM (inactive) | > 100 µM (inactive) | – | > 67.6 µM (inactive) | > 58.5 µM (inactive)
17 | O=C(c1cc2ccccc2o1)N(Cc1ccccc1)c1ccccc1 | 22.9 µM (inactive) | 18.2 µM (inactive) | 34.4 µM (inactive) | 16.1 µM (inactive) | 20.4 µM (inactive) | 19.5 µM (inactive) | 16.4 µM (inactive) | 16.9 µM (inactive) | 27 µM (inactive) | 21 µM (inactive) | 35.9 µM (inactive) | 30.5 µM (inactive) | 26 µM (inactive) | 20.6 µM (inactive) | –
18 | O=C(Nc1ccc([N+](=O)[O-])cc1)C1C(=O)C(=O)N(c2ccc([N+](=O)[O-])cc2)C1=O (stereo not drawn) | 78 µM (inactive) | 46.5 µM (inactive) | 80.2 µM (inactive) | 12 µM (inactive) | 35.8 µM (inactive) | 74.6 µM (inactive) | > 100 µM (inactive) | 80.2 µM (inactive) | > 100 µM (inactive) | 16.1 µM (inactive) | > 100 µM (inactive) | > 100 µM (inactive) | > 100 µM (inactive) | > 100 µM (inactive) | –
19 | CCN(CC)CCNC(=O)c1cccc2cc3ccccc3nc12 | 3.45 µM (inactive) | – | 7.23 µM (inactive) | 4.52 µM (inactive) | 4.44 µM (inactive) | 4.48 µM (inactive) | 4.8 µM (inactive) | 3.52 µM (inactive) | – | 5.57 µM (inactive) | 7.45 µM (inactive) | 10.4 µM (inactive) | 3.49 µM (inactive) | 8 µM (inactive) | –

Reference: ChEMBL document CHEMBL1201862, “PubChem BioAssay data set” (2004)
